Experimental data from patent publication US9296723B2, “NAMPT inhibitors” (AbbVie Inc., priority 2012, dated 2016).

Assays:
[1] = target: T1, NAMPT (Homo sapiens, UniProt P43490); experiment: Time-Resolved Fluorescence Resonance Energy Transfer (TR-FRET) Binding Assay of NAMPT; details: 6.8 nM NAMPT, 200 nM probe, equilibrated 3 hours, no substrates
Summary of the method: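 Compound was mixed with enzyme, probe and antibody and equilibrated 3 h at room temperature. TR-FRET read at Ex 337 nm, Em 520/495 nm. Ratios were normalized to controls and fitted to a four-parameter logistic equation for IC50.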

[2] = target: T1, NAMPT; experiment: TR-FRET Binding Assay of NAMPT with PRPP; details: 2 nM NAMPT, 2 nM probe, 200 µM PRPP and 2.5 mM ATP, equilibrated 16 hours
Summary of the method: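 TR-FRET probe displacement with 2 nM NAMPT, 2 nM probe and 1 nM Tb-anti-His antibody in the presence of 200 µM PRPP and 2.5 mM ATP, 2% DMSO (all final). Equilibrated 16 hours before reading to permit possible enzymatic modification of compounds.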

[3] = test system: PC3 cells; experiment: NAMPT Cell Proliferation Assay (Cell Titer Glo); assay type: cell-based; details: Homo sapiens, PC-3, 120 h, incubated 5 days, cell viability
Summary of the method: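 PC3 cells (500/well, RPMI with 10% heat-inactivated FBS) were exposed to 10-fold compound dilutions from […] for 5 days at 37 °C, 5% CO2. Viability was read with Cell Titer Glo; IC50 from sigmoidal fit of percent inhibition.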

T1 sequence (P43490 whole entry): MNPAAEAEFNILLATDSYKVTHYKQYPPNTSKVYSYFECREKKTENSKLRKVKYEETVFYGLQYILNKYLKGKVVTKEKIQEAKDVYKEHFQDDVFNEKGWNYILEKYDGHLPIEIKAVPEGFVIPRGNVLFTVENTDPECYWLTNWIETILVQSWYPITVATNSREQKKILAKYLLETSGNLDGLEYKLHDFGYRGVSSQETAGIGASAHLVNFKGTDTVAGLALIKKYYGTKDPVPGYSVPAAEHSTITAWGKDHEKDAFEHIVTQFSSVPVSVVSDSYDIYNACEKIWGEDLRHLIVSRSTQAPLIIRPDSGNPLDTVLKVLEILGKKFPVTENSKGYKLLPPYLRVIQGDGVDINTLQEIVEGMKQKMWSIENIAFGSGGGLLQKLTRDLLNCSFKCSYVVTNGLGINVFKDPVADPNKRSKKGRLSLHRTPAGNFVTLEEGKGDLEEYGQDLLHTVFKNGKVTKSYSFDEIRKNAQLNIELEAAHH

| IC50 [1] | IC50 [2] | IC50 [3] | SMILES |
| --- | --- | --- | --- |
| 33.7 nM | 0.266 nM | 61.7 nM | Cc1ccc(C(=O)N2CCC(c3ccc(NC(=O)N4CC(c5cccnc5)C4)cc3)C2)s1 (stereo not drawn) [Example 283, N-(4-{1-[(5-methylthiophen-2-yl)carbonyl]pyrrolidin-3-yl}phenyl)-3-(pyridin-3-yl)azetidine-1-carboxamide] |
| 18.3 nM | 0.204 nM | 22.3 nM | O=C(Nc1ccc(C2CCN(C(=O)c3cccs3)C2)cc1)N1CC(c2cccnc2)C1 (stereo not drawn) [Example 284, 3-(pyridin-3-yl)-N-{4-[1-(thiophen-2-ylcarbonyl)pyrrolidin-3-yl]phenyl}azetidine-1-carboxamide] |
| 30.1 nM | 0.189 nM | 37.4 nM | O=C(CCN1CCCCC1)N1CCC(c2ccc(NC(=O)N3CC(c4cccnc4)C3)cc2)C1 (stereo not drawn) [Example 287, N-(4-{1-[3-(piperidin-1-yl)propanoyl]pyrrolidin-3-yl}phenyl)-3-(pyridin-3-yl)azetidine-1-carboxamide] |
| 117 nM | 0.227 nM | 84 nM | CCOCC(=O)N1CCC(c2ccc(NC(=O)N3CC(c4cccnc4)C3)cc2)C1 (stereo not drawn) [Example 288, N-{4-[1-(ethoxyacetyl)pyrrolidin-3-yl]phenyl}-3-(pyridin-3-yl)azetidine-1-carboxamide] |
| 29.6 nM | 0.204 nM | 35.2 nM | CC(C)(C)CC(=O)N1CCC(c2ccc(NC(=O)N3CC(c4cccnc4)C3)cc2)C1 (stereo not drawn) [Example 289, N-{4-[1-(3,3-dimethylbutanoyl)pyrrolidin-3-yl]phenyl}-3-(pyridin-3-yl)azetidine-1-carboxamide] |
| 11.1 nM | 0.224 nM | 10.3 nM | CCC(C)(C)C(=O)N1CCC(c2ccc(NC(=O)N3CC(c4cccnc4)C3)cc2)C1 (stereo not drawn) [Example 290, N-{4-[1-(2,2-dimethylbutanoyl)pyrrolidin-3-yl]phenyl}-3-(pyridin-3-yl)azetidine-1-carboxamide] |
| 25.8 nM | 0.207 nM | 150 nM | CC(=O)C(=O)N1CCC(c2ccc(NC(=O)N3CC(c4cccnc4)C3)cc2)C1 (stereo not drawn) [Example 291, N-{4-[1-(2-oxopropanoyl)pyrrolidin-3-yl]phenyl}-3-(pyridin-3-yl)azetidine-1-carboxamide] |
| 268 nM | 0.259 nM | 87.8 nM | COCC(=O)N1CCC(c2ccc(NC(=O)N3CC(c4cccnc4)C3)cc2)C1 (stereo not drawn) [Example 292, N-{4-[1-(methoxyacetyl)pyrrolidin-3-yl]phenyl}-3-(pyridin-3-yl)azetidine-1-carboxamide] |
| 56.6 nM | 0.21 nM | 70.5 nM | O=C(Nc1ccc(C2CCN(C(=O)C3CCCCC3)C2)cc1)N1CC(c2cccnc2)C1 (stereo not drawn) [Example 293, N-{4-[1-(cyclohexylcarbonyl)pyrrolidin-3-yl]phenyl}-3-(pyridin-3-yl)azetidine-1-carboxamide] |
| 44.3 nM | 0.2 nM | 60.9 nM | CC(C)CC(=O)N1CCC(c2ccc(NC(=O)N3CC(c4cccnc4)C3)cc2)C1 (stereo not drawn) [Example 294, N-{4-[1-(3-methylbutanoyl)pyrrolidin-3-yl]phenyl}-3-(pyridin-3-yl)azetidine-1-carboxamide] |
| 50.7 nM | 0.272 nM | 66.5 nM | O=C(Nc1ccc(C2CCN(C(=O)C3CCCC3)C2)cc1)N1CC(c2cccnc2)C1 (stereo not drawn) [Example 295, N-{4-[1-(cyclopentylcarbonyl)pyrrolidin-3-yl]phenyl}-3-(pyridin-3-yl)azetidine-1-carboxamide] |
| 26.4 nM | 0.243 nM | 19.8 nM | CC(C)C(C)C(=O)N1CCC(c2ccc(NC(=O)N3CC(c4cccnc4)C3)cc2)C1 (stereo not drawn) [Example 296, N-{4-[1-(2,3-dimethylbutanoyl)pyrrolidin-3-yl]phenyl}-3-(pyridin-3-yl)azetidine-1-carboxamide] |
| 56.6 nM | 0.236 nM | 18.2 nM | CCCCC(=O)N1CC[C@@H](Oc2ccc(NC(=O)N3CC(c4cccnc4)C3)cc2)C1 [Example 297, N-(4-{[(3R)-1-pentanoylpyrrolidin-3-yl]oxy}phenyl)-3-(pyridin-3-yl)azetidine-1-carboxamide] |
| 64.9 nM | 0.451 nM | 14.6 nM | O=C(CC1CC2CCC1C2)N1CCC(Oc2ccc(NC(=O)N3CC(c4cccnc4)C3)cc2)C1 (stereo not drawn) [Example 299, N-(4-{[1-(bicyclo[2.2.1]hept-2-ylacetyl)pyrrolidin-3-yl]oxy}phenyl)-3-(pyridin-3-yl)azetidine-1-carboxamide] |
| 52.6 nM | 0.341 nM | 17.1 nM | O=C(CC1CCCC1)N1CC[C@@H](Oc2ccc(NC(=O)N3CC(c4cccnc4)C3)cc2)C1 [Example 300, N-(4-{[(3R)-1-(cyclopentylacetyl)pyrrolidin-3-yl]oxy}phenyl)-3-(pyridin-3-yl)azetidine-1-carboxamide] |
| 59 nM | 0.243 nM | 21.9 nM | CC1CC1C(=O)N1CC[C@@H](Oc2ccc(NC(=O)N3CC(c4cccnc4)C3)cc2)C1 (stereo partly drawn) [Example 301, N-[4-({(3R)-1-[(2-methylcyclopropyl)carbonyl]pyrrolidin-3-yl}oxy)phenyl]-3-(pyridin-3-yl)azetidine-1-carboxamide] |
| 337 nM | 0.393 nM | 141 nM | O=C(CN1CCOCC1)N1CC[C@@H](Oc2ccc(NC(=O)N3CC(c4cccnc4)C3)cc2)C1 [Example 302, N-(4-{[(3R)-1-(morpholin-4-ylacetyl)pyrrolidin-3-yl]oxy}phenyl)-3-(pyridin-3-yl)azetidine-1-carboxamide] |
| 40.5 nM | 0.595 nM | 13.5 nM | O=C(Nc1ccc(O[C@@H]2CCN(C(=O)c3ccoc3)C2)cc1)N1CC(c2cccnc2)C1 [Example 303, N-(4-{[(3R)-1-(furan-3-ylcarbonyl)pyrrolidin-3-yl]oxy}phenyl)-3-(pyridin-3-yl)azetidine-1-carboxamide] |
| 594 nM | 0.343 nM | 262 nM | O=C(CN1CCCC1)N1CC[C@@H](Oc2ccc(NC(=O)N3CC(c4cccnc4)C3)cc2)C1 [Example 304, 3-(pyridin-3-yl)-N-(4-{[(3R)-1-(pyrrolidin-1-ylacetyl)pyrrolidin-3-yl]oxy}phenyl)azetidine-1-carboxamide] |
| 435 nM | 0.211 nM | 1820 nM | O=C1CC[C@H](C(=O)N2CC[C@@H](Oc3ccc(NC(=O)N4CC(c5cccnc5)C4)cc3)C2)N1 [Example 305, N-(4-{[(3R)-1-(5-oxo-D-prolyl)pyrrolidin-3-yl]oxy}phenyl)-3-(pyridin-3-yl)azetidine-1-carboxamide] |
| 24.3 nM | 0.197 nM | 9.87 nM | O=C(Nc1ccc(O[C@@H]2CCN(C(=O)c3nccs3)C2)cc1)N1CC(c2cccnc2)C1 [Example 307, 3-(pyridin-3-yl)-N-(4-{[(3R)-1-(1,3-thiazol-2-ylcarbonyl)pyrrolidin-3-yl]oxy}phenyl)azetidine-1-carboxamide] |
| 24.2 nM | 0.293 nM | 9.61 nM | O=C(Nc1ccc(O[C@@H]2CCN(C(=O)c3ccsc3)C2)cc1)N1CC(c2cccnc2)C1 [Example 308, 3-(pyridin-3-yl)-N-(4-{[(3R)-1-(thiophen-3-ylcarbonyl)pyrrolidin-3-yl]oxy}phenyl)azetidine-1-carboxamide] |
| 32.8 nM | 0.262 nM | 11.1 nM | CC1(C(=O)N2CC[C@@H](Oc3ccc(NC(=O)N4CC(c5cccnc5)C4)cc3)C2)CC1 [Example 309, N-[4-({(3R)-1-[(1-methylcyclopropyl)carbonyl]pyrrolidin-3-yl}oxy)phenyl]-3-(pyridin-3-yl)azetidine-1-carboxamide] |
| 4.54 nM | 0.297 nM | 2.76 nM | Cc1ccsc1C(=O)N1CC[C@@H](Oc2ccc(NC(=O)N3CC(c4cccnc4)C3)cc2)C1 [Example 310, N-[4-({(3R)-1-[(3-methylthiophen-2-yl)carbonyl]pyrrolidin-3-yl]oxy}phenyl)-3-(pyridin-3-yl)azetidine-1-carboxamide] |
| 144 nM | 0.592 nM | 47.1 nM | O=C(CCC(F)(F)F)N1CC[C@@H](Oc2ccc(NC(=O)N3CC(c4cccnc4)C3)cc2)C1 [Example 311, 3-(pyridin-3-yl)-N-(4-{[(3R)-1-(4,4,4-trifluorobutanoyl)pyrrolidin-3-yl]oxy}phenyl)azetidine-1-carboxamide] |
| 311 nM | 0.29 nM | 211 nM | CN1CCN(CC(=O)N2CC[C@@H](Oc3ccc(NC(=O)N4CC(c5cccnc5)C4)cc3)C2)CC1 [Example 312, N-[4-({(3R)-1-[(4-methylpiperazin-1-yl)acetyl]pyrrolidin-3-yl}oxy)phenyl]-3-(pyridin-3-yl)azetidine-1-carboxamide] |
| 369 nM | 0.187 nM | 4590 nM | O=C1CC[C@@H](C(=O)N2CC[C@@H](Oc3ccc(NC(=O)N4CC(c5cccnc5)C4)cc3)C2)N1 [Example 313, N-(4-{[(3R)-1-(5-oxo-L-prolyl)pyrrolidin-3-yl]oxy}phenyl)-3-(pyridin-3-yl)azetidine-1-carboxamide] |
| 110 nM | 0.178 nM | 83.9 nM | CCOCCC(=O)N1CC[C@@H](Oc2ccc(NC(=O)N3CC(c4cccnc4)C3)cc2)C1 [Example 314, N-(4-{[(3R)-1-(3-ethoxypropanoyl)pyrrolidin-3-yl]oxy}phenyl)-3-(pyridin-3-yl)azetidine-1-carboxamide] |
